From patent US20260055126A1, “SMALL MOLECULE COMPOUNDS WITH PHOSPHORYLATED ARYL STRUCTURES AND USE THEREOF” (HANGZHOU PHECDAMED CO., LTD., priority 2022, published 2026)
“And” between values parts separate entries of the source, which are not always exact repeats. Equal values may be shown once.

Assays:
[1] = biological target: recombinant TEAD4 protein (217-434, Uniprot ID: Q15561) (Homo sapiens (Human), UniProt Q15561); experiment: Thermal shift assay (protein melting point curve), TEAD4; type: binding; settings: 10 μM TEAD protein, 50 μM test compound
Chain of recombinant TEAD4 protein (217-434, Uniprot ID: Q15561) (Q15561 217-434): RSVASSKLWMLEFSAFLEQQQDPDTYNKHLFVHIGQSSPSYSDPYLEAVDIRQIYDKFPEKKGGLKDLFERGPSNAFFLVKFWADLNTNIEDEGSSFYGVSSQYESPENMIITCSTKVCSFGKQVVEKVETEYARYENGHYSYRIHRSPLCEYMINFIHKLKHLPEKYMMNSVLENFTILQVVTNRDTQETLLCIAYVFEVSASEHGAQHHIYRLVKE

[2] = In vitro liver microsome stability, human; type: in vitro ADME; settings: human liver microsomes
Experimental: (§1) Testosterone is selected as the positive reference compound. The specific method is as follows:
(§2) Preparing 0.1MK3 PO4 (pH 7.4) buffer and 3×NADPH stock solution (6 mM, 5 mg/mL), and preheating in a 37° C. water bath; preparing spiking solution of tested compound and control compound: adding 5 μL compound stock solution (10 mM) to 95 μL acetonitrile; preparing 1.5 μM spiking solution in microsomes (0.75 mg/mL): add 1.5 μL spiking solution and 18.75 μL liver microsome solution (20 mg/mL) to 479.75 μL K3PO4 buffer; taking 30 μL spiking solution in microsomes and adding it to the multiwell plate, and incubating at 37° C. for 5 min; adding 15 μL of NADPH stock solution to each well, starting to react, and timing; adding 150 μL of acetonitrile solution containing IS at 0 min, 5 min, 15 min, 30 min, 45 min and 60 min respectively to terminate the reaction; after 10 min of oscillation, centrifuging the reaction at 6000 rpm for 15 min; taking 80 μL of supernatant from each well for LC/MS detection and calculating Ti/2.
(§3) Liver microsomes of mice, rats, dogs, and human used in the experiment are purchased from Xenotech.

[3] = In vitro liver microsome stability, rat; type: in vitro ADME; settings: rat liver microsomes
Experimental: as §1, §2, §3

[4] = In vitro liver microsome stability, dog; type: in vitro ADME; settings: dog liver microsomes
Experimental: as §1, §2, §3

Caco-2 cells = experiment: Permeability test on Caco2 cells; type: in vitro ADME; settings: for Papp average value: n = 2; for Papp / Receiving chamber concentration Area ratio/OD: single replicate
Experimental: After resuscitation, the Caco-2 cells are transferred to a conventional culture dish and cultured in a high-glucose DMEM medium (containing 10% FBS) at 37° C. and 5% CO2 in an incubator. When the cells cover 80% to 95% of the bottom of the dish, they are digested with trypsin containing 0.25% EDTA to disperse them into a single cell suspension, and the cell concentration is determined using a cell counter, after that, the concentration of the cell suspension is adjusted to 2 to 2.5×10^5/mL with fresh culture medium and inoculated into a Transwell polycarbonate membrane 12-well plate, the fresh culture medium is replaced every two days in the first two weeks and once a day in the last week, the culture is continued for 19 to 21 days to obtain a fully differentiated single cell layer.

[5] = biological target: recombinant TEAD1 protein central pocket (Homo sapiens (Human), UniProt P28347); experiment: Competitive thiol binding assay (CPM assay), TEAD1; settings: 150 nM recombinant TEAD protein, 150 nM CPM
Chain of recombinant TEAD1 protein central pocket (P28347 whole entry): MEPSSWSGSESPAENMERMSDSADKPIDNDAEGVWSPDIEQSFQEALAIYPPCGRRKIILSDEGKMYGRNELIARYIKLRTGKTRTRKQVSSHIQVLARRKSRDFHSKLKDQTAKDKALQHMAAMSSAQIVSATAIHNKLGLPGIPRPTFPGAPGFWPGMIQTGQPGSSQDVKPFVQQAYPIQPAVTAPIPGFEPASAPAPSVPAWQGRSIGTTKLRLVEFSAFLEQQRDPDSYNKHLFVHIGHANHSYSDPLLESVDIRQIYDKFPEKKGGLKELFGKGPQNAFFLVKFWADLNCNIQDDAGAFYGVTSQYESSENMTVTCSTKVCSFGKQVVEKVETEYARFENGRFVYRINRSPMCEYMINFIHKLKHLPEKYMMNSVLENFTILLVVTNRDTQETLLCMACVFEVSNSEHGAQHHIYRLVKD
Experimental: Diluting the tested compound in gradient to 5 uL with buffer (25 mM HEPES, 150 mM NaCl, pH6.5), then adding 5 μL of the newly prepared 0.45 uM recombinant TEAD protein solution, and incubating at room temperature for 10 minutes. […] After shaking the plate at room temperature for 1 hour, measuring the fluorescence intensity (Ex/Em: 380/470 nm).

[6] = SD rat plasma pharmacokinetic test; type: in vivo
Experimental: Animal information: SD rats, male, n=6, about 180-200 g, purchased from Sibeifu (Beijing) Biotechnology Co., Ltd.
Animal dietary status: Animals are fasted for at least 12 h before administration and resumed eating 4h after administration; during the experiment, animals are allowed to drink water freely.
Administration: administering the compound to experimental animals (n=3) by intragastric administration at a dose of 10 mg/kg, and the solvent is 0.5% CMC-Na; administering the compound to experimental animals (n=3) by intravenous injection at a dose of 1 mg/kg, and the solvent is DMSO:PEG400:normal saline=5:30:65, preparing immediately before use.
Sample collection: collecting about 0.25 mL of whole blood at each time point, anticoagulating with EDTA-K2, and placing on ice immediately after collection, within 0.5 h after collection, centrifuging at 4° C., 2000 g for 5 min, and sucking up all plasma and placing in labeled EP tubes, placing the EP tubes on ice, and freezing the plasma samples in a −60˜−90° C. refrigerator within 0.5 h.
Sample processing: centrifuging whole blood samples at 4° C., 2000 g for 5 min within 30 min after collection to separate plasma, and collecting the upper plasma sample into a sample tube.
Sample testing and data processing: Using LC-MS/MS method to detect the concentration of the original drug in plasma samples at each time point. WinNonlin is used for fitting and pharmacokinetic parameter calculation.

Δ T m (TEAD4) [1]: ++
human half-life [2]: 107 min
rat half-life [3]: 48.0 min
dog half-life [4]: 141 min
Papp average value (Caco-2 cells; AP→BL): 8.96 10^−6 cm/s
Papp (Caco-2 cells; AP→BL): 8.81 10^−6 cm/s and 9.12 10^−6 cm/s
Receiving chamber concentration Area ratio/OD (Caco-2 cells; AP→BL): 0.114 and 0.118
Papp average value (Caco-2 cells; BL→AP): 18.1 10^−6 cm/s
Papp (Caco-2 cells; BL→AP): 18.0 10^−6 cm/s and 18.2 10^−6 cm/s
Receiving chamber concentration Area ratio/OD (Caco-2 cells; BL→AP): 0.699 and 0.708
Penetration Type (Caco-2 cells; Caco2 cell model): High
intestinal permeability (Caco-2 cells; Caco2 cell model): high intestinal hypertonicity
IC50 [5]: 290 nM
pharmacokinetic properties in SD rats [6]: good pharmacokinetic properties
AUC0-t ([6]; SD rats, IG 10 mg/kg): 4440 ng·h/mL
AUC0-∞ ([6]; SD rats, IG 10 mg/kg): 4510 ng·h/mL
Cmax ([6]; SD rats, IG 10 mg/kg): 1480 ng/mL
MRT0-t ([6]; SD rats, IG 10 mg/kg): 2.25 h
MRT0-∞ ([6]; SD rats, IG 10 mg/kg): 2.37 h
Tmax ([6]; SD rats, IG 10 mg/kg): 0.50 (0.5, 0.5) h
t1/2 ([6]; SD rats, IG 10 mg/kg): 1.26 h
Absolute bioavailability (%) ([6]; SD rats, IG 10 mg/kg vs IV 1 mg/kg): 84.9%
AUC0-t ([6]; SD rats, IV 1 mg/kg): 506 ng·h/mL
AUC0-∞ ([6]; SD rats, IV 1 mg/kg): 523 ng·h/mL
CL ([6]; SD rats, IV 1 mg/kg): 1970 mL/h/kg
Cmax ([6]; SD rats, IV 1 mg/kg): 333 ng/mL
MRT0-t ([6]; SD rats, IV 1 mg/kg): 1.52 h
MRT0-∞ ([6]; SD rats, IV 1 mg/kg): 1.73 h
Vss ([6]; SD rats, IV 1 mg/kg): 3360 mL/kg
t1/2 ([6]; SD rats, IV 1 mg/kg): 1.18 h
Structure (SMILES): CP(C)(=O)c1ccc(NCc2ccc(C(F)(F)F)cc2)c(-c2nccc(OC3COC3)n2)c1 [Compound 17]
